Measurements taken from patent publication US10220064B2, “Carbohydrate composition extracted from Panax ginseng and its use in the treatment of ischemic conditions” (Macau University of Science and Technology, priority 2016, dated 2019).

Experiments:
H9c2 cells [1] = assay: Cell morphology in the H/R model; assay type: cell-based, rat; conditions: 100 μM, pretreatment, H/R (FIG. 8E)
Excerpt: FIG. 8A through 8E show the cell morphology of H9c2 cell pretreated with the carbohydrate composition AP1 in the H/R model. […] All photos (magnification power 200×) were taken after reoxygenation.
The medium was changed every two days, and the confluent cells were passaged by trypsinization weekly. The cells passaged for three to four times were used for experiments described as below.

H9c2 cells [2] = assay: Flow cytometric analysis of cardiomyocyte apoptosis (Annexin V/PI); assay type: cell-based, rat; conditions: 100 μM, H/R, H/R group 46.0%
Excerpt: The normal group (Normal) was always maintained in normoxic condition. The cells were then stained with Annexin V-FITC and PI for apoptosis analysis by flow cytometry. Cells in the lower-left quadrant (Q3), unstained for both Annexin V-FITC and PI, are defined as viable cells. Cells in the lower-right quadrant (Q4), stained for Annexin V-FITC but negative for PI, are defined as early-medium apoptotic cells. Cells in the upper-right quadrant (Q2), positive for both Annexin V-FITC and PI, are defined as late apoptotic and necrotic populations. […] The percentage of apoptotic cells measured using the Annexin-V/PI kit for flow cytometry as manufacturer's instruction. […] Cells were re-suspended in 1× binding buffer containing propidium iodide (PI) and FITC-labelled Annexin V and incubated for 15 min at 37° C. in the dark, and analyzed with flow cytometry (FACS Vantage-BD Sciences, USA). The data was analyzed using Flow J software for determining the percent of apoptotic cells.

H/R-induced H9c2 cells = assay: Impact of survival pathway inhibitors on AP1-induced cardio-protection (MVS assay); conditions: with 200 μg/mL AP1; mifepristone 100 μM, tamoxifen 100 μM, L-NAME 10 μM, LY294002 40 μM, Akt inhibitor IV 10 μM, U0126 40 μM (FIG. 11)
Protocol: H9c2 cells were pre-cultured in the presence or absence of survival pathway inhibitors, including mifepristone (MP, 100 μM), tamoxifen (TX, 100 μM), L-NAME (LM, 10 μmol/L), LY294002 (LY, 40 μM), Akt inhibitor IV (IV, 10 μM), U0126 (40 μM) with or without 200 μg/mL AP1 for 1 h, and then exposed further to H/R injury. The normal group (NOR) was always maintained in normoxic condition. Cell death was assessed by MVS assay. All measurements were repeated in six wells, the results are the average of three independent experiments. All values are expressed as mean±SD. ^^^P<0.001 vs. NOR, ***P<0.001 vs. H/R, ^##P<0.01 vs. AP1 under H/R, ^###P<0.001 vs. AP1 under H/R.
To examine the effectiveness of RSE and AP1 on H9c2 cells under hypoxia/reoxygenation conditions, the cells were cultured under normoxic conditions (95% air/5% CO2) overnight; then the cells were washed twice with Krebs-Ringer Bicarbonate buffer (composition in mM: NaCl 115, KCl 4.7, CaCl2 2.5, KH2PO4 1.2, MgSO4 1.2, NaHCO3 24, HEPES 10; pH 7.4) balanced with N2 at 4° C. for overnight. Aliquots (100 μL) of KRB supplemented with 0.01% (w/v) BSA were added to the cells immediately prior to hypoxia. To create a hypoxia condition, a hypoxic chamber (Stem Cell Technologies, USA) was used to produce an in vitro hypoxia challenge (Chiu, P. Y. et al., Molecular and cellular biochemistry 350, 237-250, 2011). In essence, the cells were placed in the sealed chamber and the chamber was flushed with pure N2 for 5 min at a flow rate of 20 mL/min, then, all sealable connectors were closed. After that, the chamber was transferred to an incubator and the cells in the chamber were subjected to 3 h incubation at 37° C. to induced hypoxia. Reoxygenation was initiated by opening the chamber and then replacing the KRB with fresh DMEM medium, the cells were then cultured in an incubator under normoxic conditions (95% air/5% CO2) at 37° C. for another 4 h.
The cells were seeded at the density of 8×10^4 cells/well in a 96-well plate. […] The control normal group was always maintained in normal DMEM and put in the incubator under normoxic atmosphere (95% air/5% CO2). For pharmaceutical blockages, the cells were treated with mifepristone (an inhibitor of GR, 100 μM), tamoxifen (an inhibitor of ER, 100 μM), L-NAME (an inhibitor of NOS, 10 μM), LY294002 (an inhibitor of PI3K, 40 μM), Akt inhibitor IV (an inhibitor of Akt protein kinase, 10 μM), U0126 (an inhibitor of Erk1/2, 40 μM) right before the pretreatment of AP1 (200 μg/mL).
The cell viability was evaluated by MVS assay (Sathishkumar, K. et al., Free Radicals and Antioxidant Protocols, 51-61, 2010). Briefly, at the end of the cell culture, the cells were overlaid with 100 μL of 2×mitochondrial viability stain in each well containing 100 μL of medium and then incubated under normoxic condition (95% air/5% CO2) for 4 h in the dark. The fluorescent intensity was measured at excitation 550 nm and emission 590 nm by a TECAN Infinite M200 micro plate reader (Tecan, Durham, USA).

[3] = tested on: NO in culture medium of H9c2 cells; assay: Nitric oxide (NO) production, Griess reaction; assay type: cell-based, rat; conditions: L-NAME 10 μmol/L, H/R (FIG. 12)
Protocol: FIG. 12 illustrates the effect of carbohydrate composition AP1 on NO production. […] The normal group (Normal) was always maintained in normoxic condition. The changes of NO levels in culture medium of H9c2 cells following H/R injury were determined by Griess reagent.
The concentration of NO in the culture medium was determined by the Griess reaction with minor changes (Chen, X. P. et al., Journal of Neuroinflammation 9, 2012). At the end of the cell culture, 40 μL cell culture fluid, 10 μL NADPH, and 40 μL basal solution (0.03 M PBS; 1.25 mM glucose-6-phosphate; 400 U/L glucose-6-phosphate dehydrogenase; 200 U/L nitrate reeducates) was incubated in a 96 well microtiter plate for 45 min at room temperature. Next, 50 μL Griess reagent was added and the solution incubated for 20 min in the dark at room temperature. Finally, the absorbance of the samples was measured at 540 nm. Concentrations of NO in the sample were calibrated with a reference standard of sodium nitrite (NaNO2) supplied with the kit and the levels of NO were expressed as μM.

Row | Compound | effect of inhibitor on protective effects of AP1 on H/R-induced cell death (H/R-induced H9c2 cells) | further results
1 | CC1=NS(=O)(=O)c2cc(Cl)ccc2N1 [DZ, diazoxide] |  | protection in H/R induced cell death (H9c2 cells [1]): significant protection; apoptosis (apoptotic cell accumulation) (H9c2 cells [2]): 22.2±3.8%
2 | CC/C(=C(\c1ccccc1)c1ccc(OCCN(C)C)cc1)c1ccccc1 [tamoxifen] | abolished the protective effects of AP1 | 
3 | CC[n+]1c(/C=C/N(C)c2ccccc2)n(-c2ccccc2)c2ccc(-c3nc4ccccc4s3)cc21.[I-] [Akt inhibitor IV] | abolished the protective effects of AP1 | 
4 | N#CC(=C(/N)Sc1ccccc1N)/C(C#N)=C(\N)Sc1ccccc1N [U0126] | abolished the protective effects of AP1 | 
5 | COC(=O)[C@@H](N)CCCNC(=N)N[N+](=O)[O-] [L-NAME] | abolished the protective effects of AP1 | NO production [3]: significantly abolished
6 | CC#C[C@]1(O)CC[C@H]2[C@@H]3CCC4=CC(=O)CCC4=C3[C@@H](c3ccc(N(C)C)cc3)C[C@@]21C [mifepristone] | abolished the protective effects of AP1 | 
